Experimental data taken from publication PMC12060275, “Biochemical, Structural, and Conformational Characterization of a Fungal Ethylene-Forming Enzyme” (Biochemistry, 2025).

What was measured:
[1] = molecular target: T1, PK2 EFE (Pseudomonas savastanoi, UniProt P32021); settings: 1 mM 2OG, 1 mM L-Arg, 0.4 mM Fe(II), 1 mM L-ascorbate, 25 mM HEPES pH 7.5, room temperature
[2] = molecular target: T1, PK2 EFE; test: succinate production by LC-MS/MS versus 2OG concentration; format: biochemical; set-up: recombinant from E. coli, His6 tag removed with TEV protease, apoprotein after EDTA/DTT treatment; settings: no L-Arg (uncoupled decarboxylation), 0.2 mM Fe(II), 0.4 mM L-ascorbate, 25 mM HEPES pH 7.5, 22 °C

T1 sequence (P32021 whole entry): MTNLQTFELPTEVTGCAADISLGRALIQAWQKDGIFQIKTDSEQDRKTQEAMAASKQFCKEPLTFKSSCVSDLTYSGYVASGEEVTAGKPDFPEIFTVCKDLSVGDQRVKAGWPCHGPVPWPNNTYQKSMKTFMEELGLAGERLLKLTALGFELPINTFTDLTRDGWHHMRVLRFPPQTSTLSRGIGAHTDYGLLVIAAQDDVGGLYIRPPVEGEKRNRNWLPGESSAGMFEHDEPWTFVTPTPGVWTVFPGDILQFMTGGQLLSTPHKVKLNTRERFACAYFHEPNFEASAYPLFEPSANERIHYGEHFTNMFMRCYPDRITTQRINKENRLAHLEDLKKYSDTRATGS

Compound	ethylene by GC and P5C by 2-aminobenzaldehyde assay (partition ratio) [1]	succinate production by LC-MS/MS versus 2OG concentration [2]
N=C(N)NCCC[C@H](N)C(=O)O [L-Arg]	we compared the ethylene/P5C partition ratios for PK2 EFE and Pd1 EFE	–
O=C(O)CCC(=O)C(=O)O [2OG]	–	such an uncoupled reaction occurs in both Pd1 and PK2 versions of EFE
